# How the values were obtained:
# [1] = biological target: T1, Tyrosine-protein kinase receptor UFO (Homo sapiens, UniProt P30530); test: Inhibition of AXL in human GIST cells; format: cell-based
# T1 sequence (P30530 whole entry): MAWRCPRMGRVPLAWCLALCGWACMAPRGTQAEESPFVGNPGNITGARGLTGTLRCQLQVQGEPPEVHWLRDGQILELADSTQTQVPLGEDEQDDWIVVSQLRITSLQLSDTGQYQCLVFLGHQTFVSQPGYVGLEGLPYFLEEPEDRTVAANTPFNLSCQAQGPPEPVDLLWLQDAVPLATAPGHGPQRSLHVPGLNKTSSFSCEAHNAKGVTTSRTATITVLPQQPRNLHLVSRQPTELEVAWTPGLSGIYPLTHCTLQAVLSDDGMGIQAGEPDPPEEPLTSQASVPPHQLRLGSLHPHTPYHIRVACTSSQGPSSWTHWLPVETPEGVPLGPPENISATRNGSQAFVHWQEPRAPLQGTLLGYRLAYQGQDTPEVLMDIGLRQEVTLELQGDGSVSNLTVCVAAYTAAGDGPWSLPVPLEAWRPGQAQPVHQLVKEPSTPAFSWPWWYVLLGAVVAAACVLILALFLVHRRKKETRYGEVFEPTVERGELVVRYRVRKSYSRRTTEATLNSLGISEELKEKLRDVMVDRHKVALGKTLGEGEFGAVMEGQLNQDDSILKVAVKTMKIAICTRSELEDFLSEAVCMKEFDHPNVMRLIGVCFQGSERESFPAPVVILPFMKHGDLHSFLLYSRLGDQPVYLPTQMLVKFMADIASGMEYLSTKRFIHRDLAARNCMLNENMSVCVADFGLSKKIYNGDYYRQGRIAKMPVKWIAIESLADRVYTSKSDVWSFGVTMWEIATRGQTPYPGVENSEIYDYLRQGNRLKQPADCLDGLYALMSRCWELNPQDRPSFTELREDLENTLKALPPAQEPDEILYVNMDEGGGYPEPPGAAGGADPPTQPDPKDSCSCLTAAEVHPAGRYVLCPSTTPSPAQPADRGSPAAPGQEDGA
# [2] = biological target: T1, Tyrosine-protein kinase receptor UFO; test: Inhibition of human full length AXL by scintillation counting method in presence of 33P-gammaATP
# [3] = biological target: T1, Tyrosine-protein kinase receptor UFO; test: Inhibition of human full length AXL after 4 hrs followed by stimulation with human recombinant Gas6 for 15 minutes by cell based assay
# [4] = biological target: Vascular endothelial growth factor receptor 2 (Homo sapiens, UniProt P35968); test: Inhibition of VEGFR2 (unknown origin)
# Chain of Vascular endothelial growth factor receptor 2 (P35968 whole entry): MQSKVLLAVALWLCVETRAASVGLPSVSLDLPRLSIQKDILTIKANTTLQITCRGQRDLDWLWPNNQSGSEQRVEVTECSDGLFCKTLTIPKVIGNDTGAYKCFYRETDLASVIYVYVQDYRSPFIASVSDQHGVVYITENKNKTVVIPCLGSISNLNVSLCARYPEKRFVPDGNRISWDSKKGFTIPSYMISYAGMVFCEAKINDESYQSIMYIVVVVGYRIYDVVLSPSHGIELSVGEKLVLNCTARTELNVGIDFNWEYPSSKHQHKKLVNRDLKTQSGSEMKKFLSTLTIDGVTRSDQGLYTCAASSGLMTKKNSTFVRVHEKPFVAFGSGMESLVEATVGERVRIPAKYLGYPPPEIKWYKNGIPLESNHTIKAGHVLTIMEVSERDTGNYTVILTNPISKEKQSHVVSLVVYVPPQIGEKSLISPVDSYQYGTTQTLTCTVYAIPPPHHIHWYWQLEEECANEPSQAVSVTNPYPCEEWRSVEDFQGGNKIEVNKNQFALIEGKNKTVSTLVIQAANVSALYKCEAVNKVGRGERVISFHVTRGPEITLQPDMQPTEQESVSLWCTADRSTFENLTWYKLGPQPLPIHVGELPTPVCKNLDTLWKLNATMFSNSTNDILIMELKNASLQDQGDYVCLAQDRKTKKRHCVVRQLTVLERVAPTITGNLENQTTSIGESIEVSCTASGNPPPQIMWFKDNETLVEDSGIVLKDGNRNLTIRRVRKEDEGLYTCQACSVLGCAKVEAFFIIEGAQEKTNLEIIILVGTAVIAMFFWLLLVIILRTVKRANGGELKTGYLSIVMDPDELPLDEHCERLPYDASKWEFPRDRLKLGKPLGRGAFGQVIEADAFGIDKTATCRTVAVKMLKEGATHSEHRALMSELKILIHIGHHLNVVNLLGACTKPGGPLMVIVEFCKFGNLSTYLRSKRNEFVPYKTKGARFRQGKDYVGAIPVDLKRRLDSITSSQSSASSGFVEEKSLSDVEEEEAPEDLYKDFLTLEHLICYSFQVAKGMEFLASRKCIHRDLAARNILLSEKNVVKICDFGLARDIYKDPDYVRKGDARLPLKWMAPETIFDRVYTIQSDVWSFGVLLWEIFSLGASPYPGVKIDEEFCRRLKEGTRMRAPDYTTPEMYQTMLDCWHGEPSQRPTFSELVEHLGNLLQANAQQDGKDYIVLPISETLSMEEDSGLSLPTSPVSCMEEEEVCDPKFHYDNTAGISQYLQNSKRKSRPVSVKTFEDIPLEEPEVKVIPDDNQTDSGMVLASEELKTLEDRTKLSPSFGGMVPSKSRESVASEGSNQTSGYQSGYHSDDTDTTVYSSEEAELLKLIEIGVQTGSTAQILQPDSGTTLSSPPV
# MDA-MB-231 = test: Antimetastatic activity against human MDA-MB-231-luc-D3H2LN cells xenografted in NCr nu/nu mouse assessed as mouse survival at 125 mg/kg, bid administered daily for 21 days measured on day 22 by bioluminescence imaging analysis; format: functional
# [5] = biological target: Tyrosine-protein kinase ABL1 (Homo sapiens, UniProt P00519); test: Inhibition of human recombinant ABL by fluorescence polarization assay
# Chain of Tyrosine-protein kinase ABL1 (P00519 whole entry): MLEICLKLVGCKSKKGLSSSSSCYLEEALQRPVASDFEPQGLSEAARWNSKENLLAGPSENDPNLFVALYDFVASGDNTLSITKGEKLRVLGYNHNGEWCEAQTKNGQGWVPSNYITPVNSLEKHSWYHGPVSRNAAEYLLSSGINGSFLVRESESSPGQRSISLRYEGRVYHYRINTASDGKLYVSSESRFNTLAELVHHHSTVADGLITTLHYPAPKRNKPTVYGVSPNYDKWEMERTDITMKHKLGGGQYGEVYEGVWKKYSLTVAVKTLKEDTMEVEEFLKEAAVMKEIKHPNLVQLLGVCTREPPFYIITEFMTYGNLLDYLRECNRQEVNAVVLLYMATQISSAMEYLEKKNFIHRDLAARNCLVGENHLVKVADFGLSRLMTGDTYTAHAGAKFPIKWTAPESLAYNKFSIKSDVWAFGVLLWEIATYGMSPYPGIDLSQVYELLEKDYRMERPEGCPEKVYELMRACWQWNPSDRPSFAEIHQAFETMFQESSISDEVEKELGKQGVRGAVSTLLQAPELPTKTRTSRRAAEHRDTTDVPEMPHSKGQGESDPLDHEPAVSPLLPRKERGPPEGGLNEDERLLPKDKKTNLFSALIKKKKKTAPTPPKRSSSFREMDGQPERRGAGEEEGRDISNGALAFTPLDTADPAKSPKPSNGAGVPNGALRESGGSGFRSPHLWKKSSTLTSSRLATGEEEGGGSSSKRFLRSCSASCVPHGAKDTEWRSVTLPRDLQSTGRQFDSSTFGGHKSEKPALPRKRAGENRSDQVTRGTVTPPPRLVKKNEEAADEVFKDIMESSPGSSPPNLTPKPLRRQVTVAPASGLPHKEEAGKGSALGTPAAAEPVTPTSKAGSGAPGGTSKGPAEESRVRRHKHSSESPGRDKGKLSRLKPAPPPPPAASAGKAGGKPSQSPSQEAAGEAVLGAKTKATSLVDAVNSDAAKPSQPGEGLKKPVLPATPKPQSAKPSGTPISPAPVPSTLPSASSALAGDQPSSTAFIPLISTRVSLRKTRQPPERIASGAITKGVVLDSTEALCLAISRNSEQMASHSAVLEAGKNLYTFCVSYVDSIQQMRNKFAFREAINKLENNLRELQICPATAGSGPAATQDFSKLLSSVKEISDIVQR
# [6] = biological target: T2, Tyrosine-protein kinase receptor TYRO3 (Homo sapiens, UniProt Q06418); test: Inhibition of human recombinant TYRO3 by fluorescence polarization assay
# T2 sequence (Q06418 whole entry): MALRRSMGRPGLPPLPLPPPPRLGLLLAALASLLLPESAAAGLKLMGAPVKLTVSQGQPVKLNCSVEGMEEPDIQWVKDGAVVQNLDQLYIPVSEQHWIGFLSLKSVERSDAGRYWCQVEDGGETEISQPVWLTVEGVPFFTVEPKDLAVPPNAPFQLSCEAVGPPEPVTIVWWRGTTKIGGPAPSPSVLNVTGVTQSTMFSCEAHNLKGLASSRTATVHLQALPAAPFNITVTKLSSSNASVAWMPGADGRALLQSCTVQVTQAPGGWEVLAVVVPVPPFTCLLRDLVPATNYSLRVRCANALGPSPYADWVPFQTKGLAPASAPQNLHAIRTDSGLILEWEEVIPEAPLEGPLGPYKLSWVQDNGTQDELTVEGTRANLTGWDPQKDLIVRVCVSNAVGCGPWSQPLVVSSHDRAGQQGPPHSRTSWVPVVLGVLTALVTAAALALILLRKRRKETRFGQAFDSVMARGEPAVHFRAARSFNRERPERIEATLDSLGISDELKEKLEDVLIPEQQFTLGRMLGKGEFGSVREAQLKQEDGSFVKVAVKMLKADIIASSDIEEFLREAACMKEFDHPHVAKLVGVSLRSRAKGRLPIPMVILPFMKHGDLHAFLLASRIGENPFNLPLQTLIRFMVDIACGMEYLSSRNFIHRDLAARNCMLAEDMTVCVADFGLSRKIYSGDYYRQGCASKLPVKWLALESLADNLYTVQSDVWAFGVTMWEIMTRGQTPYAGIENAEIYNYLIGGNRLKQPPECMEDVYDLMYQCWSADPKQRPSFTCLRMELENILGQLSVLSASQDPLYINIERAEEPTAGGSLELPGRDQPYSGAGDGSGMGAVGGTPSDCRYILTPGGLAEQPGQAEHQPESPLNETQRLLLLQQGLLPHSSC
# [7] = biological target: T1, Tyrosine-protein kinase receptor UFO; test: Inhibition of AXL (unknown origin) by cell based assay
# [8] = biological target: Hepatocyte growth factor receptor (Homo sapiens, UniProt P08581); test: Inhibition of human recombinant MET expressed in Escherichia coli BL21 infected with T7 phage by qPCR method
# Chain of Hepatocyte growth factor receptor (P08581 whole entry): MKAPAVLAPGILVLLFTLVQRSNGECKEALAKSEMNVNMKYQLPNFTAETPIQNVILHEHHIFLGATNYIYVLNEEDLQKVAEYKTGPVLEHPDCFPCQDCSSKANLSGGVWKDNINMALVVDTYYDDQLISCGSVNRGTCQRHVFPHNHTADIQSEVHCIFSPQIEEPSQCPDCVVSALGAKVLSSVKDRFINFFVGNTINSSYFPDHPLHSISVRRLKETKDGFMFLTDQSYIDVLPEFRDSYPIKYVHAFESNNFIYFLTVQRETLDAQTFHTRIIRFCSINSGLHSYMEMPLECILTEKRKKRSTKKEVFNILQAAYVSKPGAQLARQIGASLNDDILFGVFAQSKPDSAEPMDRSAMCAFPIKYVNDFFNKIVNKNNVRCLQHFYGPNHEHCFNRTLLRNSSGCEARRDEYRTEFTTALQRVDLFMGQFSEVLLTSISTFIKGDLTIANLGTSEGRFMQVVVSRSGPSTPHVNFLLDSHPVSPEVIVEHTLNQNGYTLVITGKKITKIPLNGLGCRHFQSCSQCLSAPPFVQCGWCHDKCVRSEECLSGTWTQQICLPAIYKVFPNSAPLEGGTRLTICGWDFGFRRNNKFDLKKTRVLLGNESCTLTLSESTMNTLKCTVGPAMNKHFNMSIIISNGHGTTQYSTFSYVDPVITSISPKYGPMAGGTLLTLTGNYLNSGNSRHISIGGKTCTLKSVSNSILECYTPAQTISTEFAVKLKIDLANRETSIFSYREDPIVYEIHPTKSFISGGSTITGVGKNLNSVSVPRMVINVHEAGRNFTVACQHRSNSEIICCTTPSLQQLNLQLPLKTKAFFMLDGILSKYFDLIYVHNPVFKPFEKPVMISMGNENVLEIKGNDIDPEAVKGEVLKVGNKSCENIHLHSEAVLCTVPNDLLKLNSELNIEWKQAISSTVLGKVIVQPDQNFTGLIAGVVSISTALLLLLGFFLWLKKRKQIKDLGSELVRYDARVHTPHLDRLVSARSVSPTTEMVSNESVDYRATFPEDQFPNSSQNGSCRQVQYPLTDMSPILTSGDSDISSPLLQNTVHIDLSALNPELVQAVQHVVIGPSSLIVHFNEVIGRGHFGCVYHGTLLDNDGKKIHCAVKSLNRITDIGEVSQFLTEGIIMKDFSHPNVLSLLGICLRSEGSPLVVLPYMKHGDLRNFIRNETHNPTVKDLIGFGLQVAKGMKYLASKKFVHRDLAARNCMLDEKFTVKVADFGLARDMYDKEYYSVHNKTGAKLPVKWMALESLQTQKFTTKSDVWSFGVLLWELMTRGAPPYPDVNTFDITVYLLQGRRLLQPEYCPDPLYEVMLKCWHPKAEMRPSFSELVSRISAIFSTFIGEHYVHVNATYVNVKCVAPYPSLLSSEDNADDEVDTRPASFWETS
# [9] = biological target: T1, Tyrosine-protein kinase receptor UFO; test: Inhibition of human recombinant AXL expressed in Escherichia coli BL21 infected with T7 phage by qPCR method
# [10] = biological target: T1, Tyrosine-protein kinase receptor UFO; test: Inhibition of AXL (unknown origin)
smiles,measurement,setting,value
S=C(NCc1ccc2c(c1)OCO2)N1CCN(c2ncnc3c2oc2ccccc23)CC1 [AMUVATINIB],IC50,[1],< 1000 nM
Cc1ccc(C(=O)Nc2ccc(Oc3cc4cnn(C)c4cc3-c3cn[nH]c3)c(F)c2)c(=O)n1-c1ccc(F)cc1 [MERESTINIB],IC50,[2],11 nM
same,IC50,[3],2 nM
COCCNCc1ccc(-c2cc3nccc(Oc4ccc(NC(=S)NC(=O)Cc5ccc(F)cc5)cc4F)c3s2)nc1 [GLESATINIB],IC50,[4],1 nM
Nc1nc(Nc2ccc3c(c2)CC[C@@H](N2CCCC2)CC3)nn1-c1cc2c(nn1)-c1ccccc1CCC2 [BEMCENTINIB],survival at 125 mg/kg,MDA-MB-231,> 35%
same,IC50,[5],> 700 nM
same,IC50,[6],> 700 nM
Cc1c(C(=O)Nc2ccc(Oc3ccnc4[nH]cc(-c5ccccc5)c34)c(F)c2)c(=O)n(-c2ccc(F)cc2)n1C,IC50,[7],< 500 nM
same,IC50,[8],48 nM
same,IC50,[9],10 nM
Cc1c[nH]c2nc(Nc3ccc(N4CCN(C)CC4)c(F)c3)nc(-c3cccc(CC#N)c3)c12,IC50,[10],58 nM
same,IC50,[7],< 1000 nM

# Reference: ChEMBL document CHEMBL3808287, “AXL Inhibitors in Cancer: A Medicinal Chemistry Perspective” (J Med Chem, 2016)
